ChEMBL document CHEMBL4680315, “Synthesis and anticancer potential of novel 5,6-oxygenated and/or halogenated steroidal d-homo lactones” (Bioorg Med Chem, 2021)
The source made the active and inactive calls. The calls are words filed in the database; no cut-off is given here.

Columns and labels:
[1] = test system: HeLa; assay: Cytotoxicity against human Hela cells assessed as cell growth inhibition measured after 72 hrs by MTT assay; type: functional, cell-based
[2] = test system: PC-3; assay: Cytotoxicity against human PC-3 cells assessed as cell growth inhibition measured after 72 hrs by MTT assay; type: functional, cell-based; details: PC-3, 72 h
[3] = test system: MCF7; assay: Cytotoxicity activity against human MCF7 assessed as inhibition of cell growth measured after 72 hrs by MTT assay; type: functional, cell-based; details: MCF7, 72 h
[4] = test system: A549; assay: Cytotoxicity against human A549 cells assessed as cell growth inhibition measured after 72 hrs by MTT assay; type: functional, cell-based; details: A549, 72 h
[5] = biological target: T1, Estrogen receptor (Homo sapiens) (UniProt P03372); assay: Binding affinity to EYFP-tagged human ERalpha-LBD expressed in Saccharomyces cerevisiae FY250 strain assessed as fluorescence intensity at 10 uM incubated for 14 to 16 hrs by fluorescence spectroscopy based fluorescence microscopy relative to control; details: time 14-16 hrs
T1 sequence (whole entry): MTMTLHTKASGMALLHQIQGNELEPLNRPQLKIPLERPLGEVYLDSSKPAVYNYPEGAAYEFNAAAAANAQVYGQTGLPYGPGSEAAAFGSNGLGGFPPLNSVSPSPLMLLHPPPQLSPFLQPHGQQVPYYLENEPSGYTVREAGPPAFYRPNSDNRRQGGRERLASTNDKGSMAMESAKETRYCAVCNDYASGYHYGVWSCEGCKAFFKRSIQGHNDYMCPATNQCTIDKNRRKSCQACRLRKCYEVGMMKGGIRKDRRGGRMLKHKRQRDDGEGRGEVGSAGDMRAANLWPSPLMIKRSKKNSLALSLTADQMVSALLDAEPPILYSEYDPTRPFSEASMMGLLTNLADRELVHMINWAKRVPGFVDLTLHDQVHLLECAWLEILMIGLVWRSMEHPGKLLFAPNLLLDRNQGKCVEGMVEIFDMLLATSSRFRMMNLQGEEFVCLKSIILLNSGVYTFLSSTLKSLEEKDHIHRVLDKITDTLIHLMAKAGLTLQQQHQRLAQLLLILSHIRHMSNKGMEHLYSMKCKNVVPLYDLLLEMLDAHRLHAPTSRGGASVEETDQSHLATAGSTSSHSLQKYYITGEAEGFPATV

[6] = test system: MDA-MB-231; assay: Cytotoxicity against human MDA-MB-231 cells assessed as cell growth inhibition measured after 72 hrs by MTT assay; type: functional, cell-based; details: MDA-MB-231, 72 h
[7] = test system: HT-29; assay: Cytotoxicity against human HT-29 cells assessed as cell growth inhibition measured after 72 hrs by MTT assay; type: functional, cell-based; details: HT-29, 72 h
[8] = test system: MRC5; assay: Cytotoxicity against human MRC5 cells assessed as cell growth inhibition measured after 72 hrs by MTT assay; type: cell-based; details: MRC5, 72 h
[9] = test system: MDA-MB-231; assay: Induction of apoptosis in human MDA-MB-231 cells assessed as late apoptotic cells by measuring red colour signal measured after 72 hrs by fluorescent double-staining method; type: functional, cell-based
[10] = biological target: Estrogen receptor beta (Homo sapiens) (UniProt Q92731); assay: Binding affinity to EYFP-tagged human ERbeta-LBD expressed in Saccharomyces cerevisiae FY250 strain assessed as fluorescence intensity at 10 uM incubated for 14 to 16 hrs by fluorescence spectroscopy based fluorescence microscopy relative to control; details: time 14-16 hrs
[11] = test system: A549; assay: Induction of apoptosis in human A549 cells assessed as late apoptotic cells by measuring red colour signal measured after 72 hrs by fluorescent double-staining method; type: functional, cell-based

Estrogen receptor beta (Homo sapiens), sequence (Q92731 whole entry, the tested form may be a part): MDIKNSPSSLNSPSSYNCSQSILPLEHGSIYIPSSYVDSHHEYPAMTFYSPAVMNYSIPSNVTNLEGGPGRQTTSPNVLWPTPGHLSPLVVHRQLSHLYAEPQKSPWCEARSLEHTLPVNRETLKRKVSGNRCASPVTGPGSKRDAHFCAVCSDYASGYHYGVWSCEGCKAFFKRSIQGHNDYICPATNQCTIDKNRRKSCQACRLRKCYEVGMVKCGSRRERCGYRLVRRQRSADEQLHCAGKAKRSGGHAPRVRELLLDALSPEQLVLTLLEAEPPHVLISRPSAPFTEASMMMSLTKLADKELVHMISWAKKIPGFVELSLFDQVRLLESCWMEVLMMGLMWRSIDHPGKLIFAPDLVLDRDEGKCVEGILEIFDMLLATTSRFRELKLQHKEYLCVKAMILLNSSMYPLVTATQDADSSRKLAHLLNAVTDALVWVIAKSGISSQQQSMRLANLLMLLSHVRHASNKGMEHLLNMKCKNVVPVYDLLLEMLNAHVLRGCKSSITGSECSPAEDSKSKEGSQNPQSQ

| SMILES | Activity [5] | Activity [10] | IC50 [1] | IC50 [2] | IC50 [3] | IC50 [4] | IC50 [6] | IC50 [7] | IC50 [8] | Activity [9] | Activity [11] |
| --- | --- | --- | --- | --- | --- | --- | --- | --- | --- | --- | --- |
| CO[C@@H]1C[C@H]2[C@@H]3CC(=O)OC[C@@]3(C)CC[C@@H]2[C@@]2(C)CC[C@H](O)C[C@]12O |  |  | 27 µM | 10.8 µM | 73.6 µM | > 100 µM | 3.38 µM | > 100 µM | > 100 µM | Active |  |
| CC(=O)O[C@H]1CC[C@]2(C)[C@H]3CC[C@]4(C)COC(=O)C[C@H]4[C@@H]3C[C@H](Br)[C@]2(O)C1 |  |  | > 100 µM | > 100 µM | 12.9 µM | > 100 µM | > 100 µM | > 100 µM | > 100 µM |  |  |
| CO[C@]12C[C@@H](O)CC[C@]1(C)[C@H]1CC[C@]3(C)COC(=O)C[C@H]3[C@@H]1C[C@H]2O |  |  | 7.06 µM | 24.8 µM | > 100 µM | > 100 µM | 4.4 µM | > 100 µM | > 100 µM | Active |  |
| CC(=O)O[C@H]1CC[C@]2(C)[C@H]3CC[C@]4(C)COC(=O)C[C@H]4[C@@H]3C[C@@H](O)[C@@]2(Cl)C1 |  |  | 36.9 µM | > 100 µM | > 100 µM | > 100 µM | > 100 µM | 72.3 µM | > 100 µM |  |  |

Continued, in another order:

| Activity [5] | Activity [10] | SMILES | IC50 [1] | IC50 [2] | IC50 [3] | IC50 [4] | IC50 [6] | IC50 [7] | IC50 [8] | Activity [9] | Activity [11] |
| --- | --- | --- | --- | --- | --- | --- | --- | --- | --- | --- | --- |
| Active |  | CC(=O)O[C@H]1CC[C@]2(C)[C@H]3CC[C@]4(C)COC(=O)C[C@H]4[C@@H]3C[C@H]3O[C@]32C1 | 16.9 µM | > 100 µM | 100 µM | > 100 µM | 33.9 µM | 14 µM | > 100 µM | Active |  |
|  | Active | CC(=O)O[C@H]1CC[C@]2(C)[C@H]3CC[C@]4(C)COC(=O)C[C@H]4[C@@H]3C[C@@H](O)[C@@]2(F)C1 | > 100 µM | > 100 µM | 42.9 µM | > 100 µM | 9.1 µM | 21.2 µM | > 100 µM | Active |  |
| Active |  | CC(=O)O[C@H]1CC[C@]2(C)[C@H]3CC[C@]4(C)COC(=O)C[C@H]4[C@@H]3C[C@@H](Br)[C@@]2(Br)C1 | 9.46 µM | > 100 µM | 34.9 µM | 36.9 µM | 13.3 µM | 16.2 µM | > 100 µM | Active | Active |
| Active |  | C[C@]12CC[C@H]3[C@@H](CC(=O)[C@@]4(O)CC(=O)CC[C@]34C)[C@@H]1CC(=O)OC2 | 40.1 µM | > 100 µM | > 100 µM | > 100 µM | 4.81 µM | 42.2 µM | > 100 µM | Active |  |
|  | Active | CC(=O)O[C@H]1CC[C@]2(C)[C@H]3CC[C@]4(C)COC(=O)C[C@H]4[C@@H]3C[C@@H](O)[C@@]2(O)C1 | > 100 µM | > 100 µM | > 100 µM | > 100 µM | > 100 µM | 86.6 µM | > 100 µM |  |  |
